We go through 2 compounds from US12370214B2, “Combined pharmaceutical formulation comprising drug-containing liposome composition and platinum preparation” (FUJIFILM Corporation, priority 2018, dated 2025).

For data set [1], the system named is A2780 cells. Nature of the data set: Drug efficacy test with combined use of platinum preparation in tumor-bearing mouse model with subcutaneous transplantation of A2780 (carboplatin, Lipo, paclitaxel). Type of data set: in vivo, mice. The protocol: A platinum preparation (hereinafter, also referred to as carboplatin), the topotecan-containing liposome composition according to the embodiment of the present invention, and paclitaxel were used as test substances. Physiological saline (available from Otsuka Pharmaceutical Factory, Inc., hereinafter, also referred to as carboplatin solvent) was used for the dilution of carboplatin. A 10 mM histidine/9.4% sucrose solution (hereinafter, also referred to as Lipo solvent) was used for the dilution of Lipo. 12.5% CREMOPHOR (available from Sigma-Aldrich, LLC)/12.5% ethanol (available from Shonan Wako Junyaku K.K.)/75% physiological saline (available from Otsuka Pharmaceutical Factory, Inc.) was used for the dilution of paclitaxel.
5×10^6 A2780 cells, which is a human ovarian cancer cell line, were subcutaneously transplanted into the flank of female BALB/cAJcl-nu/nu mice to form subcutaneous tumors. From 7 days after transplantation, mice were drug treated with carboplatin alone, Lipo of the present invention alone, a combination of carboplatin and Lipo, and a combination of carboplatin and paclitaxel, and the effect of the drug treatment on the survival time of the mice was evaluated. In a case where a volume of tumor reached 2,000 mm^3 or in a case where significant deterioration of the condition was observed, the animals were euthanized and considered dead. […]

Data set [2] concerns A2780 cells. Nature of the data set: Drug efficacy test with combined use of platinum preparation in tumor-bearing mouse model with subcutaneous transplantation of A2780 (carboplatin, Lipo, topotecan). The note with it: for Median survival time: from start of drug administration, carboplatin 80 mg/kg ip, Lipo 0.5 mg/kg tail vein once a week x 2, topotecan 0.5 mg/kg tail vein once a day x 5, carboplatin once in the topotecan combination; for Number of animal deaths or euthanasias due to deterioration of condition: of 8 animals in group, same doses and schedules as median survival. The class given is in vivo, mice. From the text:
A platinum preparation (hereinafter, also referred to as carboplatin), the topotecan-containing liposome composition according to the embodiment of the present invention, and topotecan were used as test substances. Physiological saline (available from Otsuka Pharmaceutical Factory, Inc., hereinafter, also referred to as carboplatin solvent) was used for the dilution of carboplatin and topotecan. A 5% Otsuka glucose solution (available from Otsuka Pharmaceutical Factory, Inc., hereinafter, also referred to as Lipo solvent) was used for the dilution of Lipo.
5×10^6 A2780 cells, which is a human ovarian cancer cell line, were subcutaneously transplanted into the flank of female BALB/cAJcl-nu/nu mice to form subcutaneous tumors. From 7 days after transplantation, mice were drug treated with carboplatin alone, Lipo of the present invention alone, topotecan alone, a combination of carboplatin and Lipo, and a combination of carboplatin and topotecan, and the effect of the drug treatment on the survival time of the mice was evaluated. In a case where a volume of tumor reached 2,000 mm^3 or in a case where significant deterioration of the condition was observed, the animals were euthanized and considered dead.
In the combination group of a carboplatin solvent and a Lipo solvent, the carboplatin solvent was administered by intraperitoneal administration, and the Lipo solvent was administered by tail vein administration once a week for 2 weeks. The carboplatin alone group was administered by intraperitoneal administration once a week for 2 weeks. The Lipo alone group was administered by tail vein administration once a week for 2 weeks. In the combination group of carboplatin and Lipo, carboplatin was administered by intraperitoneal administration once a week for 2 weeks, and Lipo was administered by tail vein administration once a week for 2 weeks. In the combination group of carboplatin and topotecan, carboplatin was administered as a single dose by intraperitoneal administration, and topotecan was administered by tail vein administration once a day for 5 days.
Groups 1 to 4 and 6 correspond to Comparative Examples, and Group 5 corresponds to Example. In Table 5, “Lipo” represents the topotecan-containing liposome composition according to the embodiment of the present invention, “Abdomen” represents intraperitoneal administration, “Tail” represents tail vein administration, “Once a week×2” represents once a week for 2 weeks, “Once a day×5” represents administration once a day for 5 days, and “Once” represents administration once during the test period.

In the case of `N.N.O=C([O-])C1(C(=O)[O-])CCC1.[Pt+2]` [Carboplatin, carboplatin], the Median survival time is 10 days in data set [1] (from start of drug administration, carboplatin 80 mg/kg ip, Lipo 0.5 mg/kg tail vein, paclitaxel 20 mg/kg tail vein, single agents once a week x 2, combinations once) and 9.1 days in data set [2]. The “Number of animal deaths or euthanasias due to deterioration of condition” value in data set [1] (of 8 animals in group, same doses and schedules as median survival) was determined as 1; in data set [2], 0.

For `CC[C@@]1(O)C(=O)OCc2c1cc1n(c2=O)Cc2cc3c(CN(C)C)c(O)ccc3nc2-1` [Topotecan, topotecan], in data set [2], the Median survival time is 12.9 days and the “Number of animal deaths or euthanasias due to deterioration of condition” value is reported as 0.
